Values quoted from earlier work as cited in US6919359B2, “Azabicyclic-substituted-heteroaryl compounds for the treatment of disease” (Pfizer Inc, priority 2001, dated 2005).

How the values were obtained:
α7 nAChR = α7 nAChR (Homo sapiens, UniProt P36544)
5HT3R = molecular target: T1, 5HT3R (Homo sapiens, UniProt P46098)
T1 sequence (P46098 24-478): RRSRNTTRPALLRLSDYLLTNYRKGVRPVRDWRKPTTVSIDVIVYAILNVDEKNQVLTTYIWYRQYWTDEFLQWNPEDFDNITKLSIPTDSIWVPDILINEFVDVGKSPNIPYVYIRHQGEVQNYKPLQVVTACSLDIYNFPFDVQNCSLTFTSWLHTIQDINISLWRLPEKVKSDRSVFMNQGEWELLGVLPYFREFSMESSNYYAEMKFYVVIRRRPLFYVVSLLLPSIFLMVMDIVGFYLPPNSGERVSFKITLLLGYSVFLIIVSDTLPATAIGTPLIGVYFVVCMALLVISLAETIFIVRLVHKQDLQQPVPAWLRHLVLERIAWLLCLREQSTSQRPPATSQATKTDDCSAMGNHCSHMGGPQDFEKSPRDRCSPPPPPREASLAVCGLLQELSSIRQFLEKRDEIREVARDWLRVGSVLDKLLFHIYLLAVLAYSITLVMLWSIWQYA

α7 nAChR, sequence (P36544 23-502): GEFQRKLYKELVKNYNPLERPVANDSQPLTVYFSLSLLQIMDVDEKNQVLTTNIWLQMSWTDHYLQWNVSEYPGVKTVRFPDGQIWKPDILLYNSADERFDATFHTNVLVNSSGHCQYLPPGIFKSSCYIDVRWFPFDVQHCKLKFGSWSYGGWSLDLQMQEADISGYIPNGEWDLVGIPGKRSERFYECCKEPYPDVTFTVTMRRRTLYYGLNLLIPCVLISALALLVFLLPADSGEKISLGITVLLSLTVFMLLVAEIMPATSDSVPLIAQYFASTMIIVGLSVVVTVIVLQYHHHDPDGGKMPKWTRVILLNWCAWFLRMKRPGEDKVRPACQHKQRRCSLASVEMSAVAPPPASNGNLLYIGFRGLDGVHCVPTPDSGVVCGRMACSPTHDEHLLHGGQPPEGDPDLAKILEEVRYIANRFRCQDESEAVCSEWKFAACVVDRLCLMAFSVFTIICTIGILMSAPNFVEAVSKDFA

## Cc1nccn1CC1CCc2c(c3ccccc3n2C)C1=O (centres unmarked) [Ondansetron]
α7 nAChR
  activity at the α7 nAChR: little activity

## COc1ccc(/C=C2\CCCN=C2c2cccnc2)c(OC)c1 [GTS-21]
5HT3R
  activity at the 5HT3R: little activity
